Among the data in patent US8962837B2, “Nitrogen heterocycle derivatives, preparation thereof and application thereof in human therapeutics” (Pierre Fabre Medicament, priority 2010, dated 2015) are IC50, inhibition in vivo and EC50 values, retold here.

In one test the target is Human SCD-1 (Homo sapiens (Human), UniProt O00767). The experiment in a line: Human SCD-1 enzyme activity using HepG2 cell microsomes (conversion of stearic acid to oleic acid). The note with it: 20 minutes at 37° C., relative to 0.1% DMSO vehicle, read-out: HSCD-1 (HEPG2) IC50. The class given is biochemical. On the procedure:
Human SCD-1 enzyme activity using HepG2 cell microsomes after treating with inhibitory compounds (% inhibition):
Human hepatocarcinoma HepG2 cells (ATCC, HB-8065) are cultured to confluence and trypsinised. The cell pellet is taken up with 10 mM Tris (pH 7.4) sucrose (250 mM) DTT (1 mM) buffer and the cells are lysed by sonication. The microsomes are obtained after centrifugation at 10,000 g for 20 minutes at 4° C. followed by centrifugation of the supernatant at 100,000 g for 60 minutes at 4° C. The pellet is taken up with 10 mM Tris (pH 7.4) sucrose (250 mM) buffer at 4° C. and the microsomal proteins are assayed and stored at −196° C. (liquid nitrogen).
The enzyme reaction measures the conversion of stearic acid (C18:0 fatty acid) to oleic acid (C18:1 fatty acid) by SCD-1. The enzyme reaction is started by adding 125 μg of HepG2 cell microsomal fraction to tubes (total reaction volume of 500 μl) containing 62 μM of stearic acid (45 μM of stearic acid 17 μM of [^14C] stearic acid) in a 100 mM phosphate buffer (pH 7.16) with 7.2 mM of ATP, 0.54 mM of CoA, 6 mM of MgCl2, 0.8 mM of NADH and the inhibitory compound or the vehicle (0.1% DMSO). The tubes are incubated for 20 minutes at 37° C. and the enzyme reaction is stopped by adding KOH (12%) and saponification for 30 minutes at 80° C. After acidification (3N HCl), the fatty acids are extracted twice with ethyl ether, evaporated in nitrogen before being taken up with methanol/dichloromethane (3:1). The reaction product (C18:1) is separated from the reaction substrate (C18:0) by HPLC (Perkin Elmer, C18 reverse phase column) coupled with an online radioactivity detector (FlowOne). The enzyme activity is calculated in picomoles of stearic acid converted into oleic acid per minute and per mg of protein. For each inhibitory compound, an IC50 is determined in relation to the reference enzyme activity (0.1% DMSO vehicle). Sterculic acid is the reference inhibitory compound (Gomez F. E., Bauman D. E., Ntambi J. M., Fox B. G. Effects of sterculic acid on stearoyl-CoA desaturase in differentiating 3T3-L1 adipocytes. Biochem Biophys Res Commun. 300 316-326 (2003).

The next test deals with sebaceous glands. The test can be described thus: Topical application of SCD-1 inhibitory compounds to NMRI mice: reduction in number and size of sebaceous glands. Type of test: in vivo. Conditions: Mus musculus, 120 h, twice daily, treatment time 5 days; for inhibition in vivo at 1 %: concentration 1%; for inhibition in vivo at 0.3 %: concentration 0.3%. On the procedure:
Topical application of SCD-1 inhibitory compounds to NMRI mice: reduction in number and size of sebaceous glands.
Experimental protocol: Crl:NMRI male mice (24-26 g) are shaved (2×2 cm^2 minimum) 2-3 days before the first application of molecules under test. To prevent potential oral intake of the molecules, the animals are accommodated individually.
The molecules are solubilised in the ethanol/propylene glycol (30/70, v/v) vehicle are a maximum concentration of 1%. 50 μl of each preparation (molecule under test, or vehicle) are applied twice daily for 5 consecutive days on the 2 cm^2 shaved area, with the cone of a pipette with a number of to-and-fro movements. At least 6 hours after the final application, the mice are euthanised, the skin samples are taken and fixed immediately to produce paraffin sections; a histomorphometric analysis after Haematoxylin/Eosin staining is carried out.
For each animal, at least 3 sections approximately 10 mm in length are read blind by 3 people, and the efficacy of the molecules on sebaceous gland atrophy is assessed quantitatively (number) and qualitatively (relative score, size). The duration of action, the reversibility of the effect are verified in the same way by modifying the application sequences.

The test system of a further test is HCT-116 tumour cells. The experiment in a line: Cytotoxic / anti-proliferation activity on human colon cancer cell line HCT-116 (ATP-lite). The class given is cell-based. Conditions: 72 hours. On the procedure: Cytotoxic activities with respect to human colon cancer cell lines (HCT-116):
HCT-116 tumour cells are inoculated in a 96-well plate in RPMI 1640 medium to which 5% foetal calf serum is added (100 μl/well, respectively at 1.5 10^4 cells/ml). After 24 hours of incubation at 37° C. in an incubator at 5% CO2, 11 μl of medium containing the compound under test at a concentration 10 times greater than the final concentration are added. The plates are incubated for a further 72 hours. Cell survival is evaluated by measuring the luminescence after releasing ATP in the medium using the cell lysis, luciferase and luciferin solutions contained in the ATP-lite-M™ kit as recommended by the manufacturer (Packard, Rungis, France). Each experimental condition was replicated at least three times independently with one well reading in sextuplet per dose interval.

Setting [1] is: HCT-116, HTC116 human tumour line, read-out: EC50 (anti-proliferation activity).
[2] abbreviates: Homo sapiens, HCT-116 tumour line cells, read-out: 50% inhibitory concentration (EC50), concentration inhibiting cell proliferation by 50%.

Read-outs that look alike come from different tables or passages of the source.

Chain of Human SCD-1 (O00767 whole entry): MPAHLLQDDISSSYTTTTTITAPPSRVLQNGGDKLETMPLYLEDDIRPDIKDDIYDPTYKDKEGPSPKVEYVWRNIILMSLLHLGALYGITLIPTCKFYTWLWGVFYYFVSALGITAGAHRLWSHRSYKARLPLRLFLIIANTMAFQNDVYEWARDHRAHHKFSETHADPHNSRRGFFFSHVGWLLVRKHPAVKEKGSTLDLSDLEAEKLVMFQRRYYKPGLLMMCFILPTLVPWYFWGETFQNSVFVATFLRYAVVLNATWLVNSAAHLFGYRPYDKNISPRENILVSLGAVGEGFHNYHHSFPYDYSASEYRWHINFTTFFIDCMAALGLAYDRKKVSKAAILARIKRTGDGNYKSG

As to `Cc1cnnc(N2CCC(Oc3cc(F)ccc3Cl)CC2)n1` [Example 25, 3-[4-(2-Chloro-5-fluoro-phenoxy)-piperidin-1-yl]-5-methyl-[1,2,4]triazine], on Human SCD-1, the IC50 stood at 0.1 µM.
Same read-out and setting: next, `Fc1ccc(Cl)c(OC2CCN(c3nccnn3)CC2)c1` [Example 18, 3-[4-(2-Chloro-5-fluoro-phenoxy)-piperidin-1-yl]-[1,2,4]triazine]: 0.03 µM; `Clc1ccccc1OC1CCN(c2nccnn2)CC1` [Example 13, 3-[4-(2-Chloro-phenoxy)-piperidin-1-yl]-[1,2,4]triazine]: 0.1 to 1 µM.
In turn, `FC(F)(F)c1ccc(Cl)c(OC2CCN(c3nccnn3)CC2)c1` [Example 17, 3-[4-(2-Chloro-5-trifluoromethyl-phenoxy)-piperidin-1-yl]-[1,2,4]triazine] came in with an inhibition in vivo at 1 % in the test on sebaceous glands of 97%. Besides, the EC50 with HCT-116 tumour cells (setting [1]) and in the test with HCT-116 tumour cells (setting [2]) was 0.23 µM throughout. Also, the IC50 on Human SCD-1 was determined as 0.1 µM.
Regarding `Cn1nccc(N2CCC(Oc3cc(C(F)(F)F)ccc3Cl)CC2)c1=O` [Example 40, 4-[4-(2-Chloro-5-trifluoromethyl-phenoxy)-piperidin-1-yl]-2-methyl-2H-pyridazin-3-one], the inhibition in vivo at 0.1 % in the test with sebaceous glands (concentration 0.1%) came out at 36%. Further, on Human SCD-1, the IC50 was 0.1 to 0.3 µM.
On to `FC(F)(F)c1ccccc1OC1CCN(c2nccnn2)CC1` [Example 14, 3-[4-(2-Trifluoromethyl-phenoxy)-piperidin-1-yl]-[1,2,4]triazine], for which the IC50 at Human SCD-1 was in the range of 0.1 to 1 µM.
With `Fc1cc(Br)c(OC2CCN(c3nccnn3)CC2)cc1F` [Example 33, 3-[4-(2-Bromo-4,5-difluoro-phenoxy)-piperidin-1-yl]-[1,2,4]triazine], the IC50 on Human SCD-1 fell in the range of 0.01 to 0.1 µM.
On to `Cn1cc(Cl)nc(N2CCC(Oc3cc(F)ccc3Cl)CC2)c1=O` [Example 12, 5-Chloro-3-[4-(2-chloro-5-fluoro-phenoxy)-piperidin-1-yl]-1-methyl-1H-pyrazin-2-one], for which, in the test with sebaceous glands, the inhibition in vivo at 0.3 % is 94%. The EC50 in the test with HCT-116 tumour cells (setting [1]) and in the test with HCT-116 tumour cells (setting [2]) was 0.06 µM in each case. Moreover, on Human SCD-1, the IC50 is 0.01 to 0.03 µM.
With `CC1CN(c2nccnn2)CCC1Oc1cc(Cl)ccc1Cl` (stereo not drawn) [Example 38, 3-[4-(2,5-Dichloro-phenoxy)-3-methyl-piperidin-1-yl]-[1,2,4]triazine], the IC50 at Human SCD-1 was in the range of 0.3 to 1 µM.
The same measure, in the same setting: next, `Cc1cnnc(N2CCC(Oc3ccccc3Cl)CC2)n1` [Example 28, 3-[4-(2-Chloro-phenoxy)-piperidin-1-yl]-5-methyl-[1,2,4]triazine]: 0.3 to 1 µM; `Cc1cnnc(N2CCC(Oc3cc(C(F)(F)F)ccc3Cl)CC2)n1` [Example 27, 3-[4-(2-Chloro-5-trifluoromethyl-phenoxy)-piperidin-1-yl]-5-methyl-[1,2,4]triazine]: 0.3 µM.
In the test with sebaceous glands, `Cc1ccccc1OC1CCN(c2nc(Cl)cn(C)c2=O)CC1` [Example 9, 5-Chloro-1-methyl-3-(4-o-tolyloxy-piperidin-1-yl)-1H-pyrazin-2-one] displayed an inhibition in vivo at 0.3 % of 43%. At Human SCD-1, the IC50 was in the range of 0.1 to 1 µM.
`CCCCCCCCC1=C(CCCCCCCC(=O)O)C1` [Sterculic acid, reference compound]: on Human SCD-1, the half-maximal inhibitory concentration (IC50) worked out at 0.3 µM.
For `Cn1ccnc(N2CCC(Oc3ccccc3C(F)(F)F)CC2)c1=O` [Example 11, 1-Methyl-3-[4-(2-trifluoromethyl-phenoxy)-piperidin-1-yl]-1H-pyrazin-2-one], the inhibition in vivo at 1 % with sebaceous glands worked out at 45%. For the same molecule, the IC50 on Human SCD-1 was 0.1 µM.
For the molecule `CC1CN(c2nccnn2)CCC1Oc1cc(C(F)(F)F)ccc1Cl` (stereo not drawn) [Example 37, 3-[4-(2-Chloro-5-trifluoromethyl-phenoxy)-3-methyl-piperidin-1-yl]-[1,2,4]triazine], the half-inhibitory concentration (IC50) on Human SCD-1 lay within 0.1 to 1 µM.
The same measure, in the same setting: next, `O=[N+]([O-])c1ccccc1OC1CCN(c2nccnn2)CC1` [Example 35, 3-[4-(2-Nitro-phenoxy)-piperidin-1-yl]-[1,2,4]triazine]: 0.1 to 1 µM; `Cc1nnc(N2CCC(Oc3cc(C(F)(F)F)ccc3Cl)CC2)nc1C` [Example 19, 3-[4-(2-Chloro-5-trifluoromethyl-phenoxy)-piperidin-1-yl]-5,6-dimethyl-[1,2,4]triazine]: 0.1 to 1 µM.
`Cn1cc(Cl)nc(N2CCC(Oc3cc(C(F)(F)F)ccc3Cl)CC2)c1=O` [Example 8] registered an inhibition in vivo at 0.3 % with sebaceous glands of 95%. Besides, the IC50 at Human SCD-1 lay in the range of 0.1 to 0.3 µM.
In the test with sebaceous glands, `Cn1cc(Cl)nc(N2CCC(Oc3ccccc3Cl)CC2)c1=O` [Example 6, 5-Chloro-3-[4-(2-chloro-phenoxy)-piperidin-1-yl]-1-methyl-1H-pyrazin-2-one] had an inhibition in vivo at 0.3 % of 79%. The IC50 on Human SCD-1 was 0.1 to 1 µM.
On to `FC(F)(F)c1ccc(Cl)c(OC2CCN(c3nccnn3)C2)c1` (stereo not drawn) [Example 42, 3-[3-(2-Chloro-5-trifluoromethyl-phenoxy)-pyrrolidin-1-yl]-[1,2,4]triazine], for which the IC50 on Human SCD-1 is 0.3 to 1 µM.
Same read-out and setting: the result for `O=[N+]([O-])c1ccc(Cl)c(OC2CCN(c3nccnn3)CC2)c1` [Example 32, 3-[4-(2-Chloro-5-nitro-phenoxy)-piperidin-1-yl]-[1,2,4]triazine] reads 0.03 to 0.1 µM.
Molecule `Cn1cc(Cl)nc(N2CCC(Oc3ccccc3C(F)(F)F)CC2)c1=O` [Example 7, 5-Chloro-1-methyl-3-[4-(2-trifluoromethyl-phenoxy)-piperidin-1-yl]-1H-pyrazin-2-one] displayed an inhibition in vivo at 0.3 % with sebaceous glands of 75%. Also, on Human SCD-1, the IC50 is 0.1 to 0.3 µM.
As to `FC(F)(F)c1ccccc1NC1CCN(c2nccnn2)CC1` [Example 36], the IC50 at Human SCD-1 worked out at 0.03 µM.
Same read-out and setting: the result for `Cc1cnc(N2CCC(Oc3cc(F)ccc3Cl)CC2)nn1` [Example 30, 3-[4-(2-Chloro-5-fluoro-phenoxy)-piperidin-1-yl]-6-methyl-[1,2,4]triazine] reads 0.1 µM.

What is called IC50 is the concentration that inhibits the measured activity by half. The inhibition in vivo is the relative decrease from the control value, in per cent.
